# Laboratory results from ChEMBL document CHEMBL5257022, “An integrated overview on pyrrolizines as potential anti-inflammatory, analgesic and antipyretic agents” (Eur J Med Chem, 2016).
# Test system: Rattus norvegicus
# Test: Antiinflammatory activity in rat assessed as fold change in inhibition of paw edema relative to phenylbutazone
# Type: functional
row,SMILES,fold change (FC)
1,O=C(c1ccc(F)cc1)c1ccc2n1CCCCC2C(=O)O (stereo unspecified),<1
2,CSc1ccc(C(=O)c2ccc3n2CCCC3C(=O)O)cc1 (stereo unspecified),-1
3,O=C(c1ccccc1)c1ccc2n1CC(C(=O)O)C2 (stereo unspecified),<1
4,O=C(c1ccc(F)cc1)c1ccc2n1CCC2C(=O)O (stereo unspecified),61
5,N#Cc1ccc(C(=O)c2ccc3n2CCC3C(=O)O)cc1 (stereo unspecified),<1
6,Cc1ccc(C(=O)c2ccc3n2CCCC3C(=O)O)cc1 (stereo unspecified),<1
7,O=C(c1cccc(Cl)c1)c1ccc2n1CCCC2C(=O)O (stereo unspecified),8
8,CS(=O)(=O)c1ccc(C(=O)c2ccc3n2CCCC3C(=O)O)cc1 (stereo unspecified),3
9,C[S+]([O-])c1ccc(C(=O)c2ccc3n2CCCC3C(=O)O)cc1 (stereo unspecified),<0.2
10,O=C(Cc1ccccc1)c1ccc2n1CCC2C(=O)O (stereo unspecified),3
11,O=C(c1ccc(F)cc1)c1ccc2n1CCCC2C(=O)O (stereo unspecified),<1
12,CSc1ccc(C(=O)c2ccc3n2CCCCC3C(=O)O)cc1 (stereo unspecified),<0.2
13,COc1ccc(C(=O)c2ccc3n2CCC3C(=O)O)cc1 (stereo unspecified) [ANIROLAC],83
14,O=C(c1ccccc1)c1ccc2n1CCCC2C(=O)O (stereo unspecified),<1
15,O=C(c1ccc(Cl)cc1)c1ccc2n1CCCC2C(=O)O (stereo unspecified),<=0.6
16,O=C(c1ccc2n1CCC2C(=O)O)C1CCC1 (stereo unspecified),-1.5
17,CC(C)(C)C(=O)c1ccc2n1CCC2C(=O)O (stereo unspecified),1
18,Cc1ccc(C(=O)c2ccc3n2CCC3C(=O)O)cc1 (stereo unspecified),39
19,COc1ccc(C(=O)c2ccc3n2CCCC3C(=O)O)cc1 (stereo unspecified),<1.6
20,O=C(c1ccc(Cl)cc1)c1ccc2n1CC(C(=O)O)C2 (stereo unspecified),<0.3
21,O=C(c1ccc(Cl)cc1)c1c(Cl)cc2n1CCC2C(=O)O (stereo unspecified),88
22,O=C(c1ccccc1)c1ccc2n1CCCCC2C(=O)O (stereo unspecified),-0.4

# Target: Prostaglandin G/H synthase 1 (Homo sapiens, UniProt P23219)
# Sequence (P23219 whole entry): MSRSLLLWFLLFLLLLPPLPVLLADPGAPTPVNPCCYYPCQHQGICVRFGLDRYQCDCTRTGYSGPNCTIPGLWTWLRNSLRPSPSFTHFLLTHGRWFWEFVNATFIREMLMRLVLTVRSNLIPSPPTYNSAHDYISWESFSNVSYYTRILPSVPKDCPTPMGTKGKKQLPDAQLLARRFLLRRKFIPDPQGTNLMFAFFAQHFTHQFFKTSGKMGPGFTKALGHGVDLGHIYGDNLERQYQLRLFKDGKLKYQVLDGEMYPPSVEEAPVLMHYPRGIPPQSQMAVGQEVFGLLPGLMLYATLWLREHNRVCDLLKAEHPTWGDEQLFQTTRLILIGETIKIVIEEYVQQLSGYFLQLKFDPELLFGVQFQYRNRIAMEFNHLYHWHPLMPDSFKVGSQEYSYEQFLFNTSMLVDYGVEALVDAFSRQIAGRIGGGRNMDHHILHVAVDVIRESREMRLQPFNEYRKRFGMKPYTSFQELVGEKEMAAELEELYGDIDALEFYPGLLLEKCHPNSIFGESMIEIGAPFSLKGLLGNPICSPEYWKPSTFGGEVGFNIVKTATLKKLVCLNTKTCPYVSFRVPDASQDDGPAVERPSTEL
# Test: Inhibition of COX1 (unknown origin)
row,SMILES,IC50 [nM]
1,CC1(C)Cc2c(-c3ccccc3)c(-c3ccsc3)c(CC(=O)O)n2C1,60
2,Cc1ccc(-c2c(-c3ccc(S(C)(=O)=O)cc3)cn3c2CCC3)cc1,700
3,CSc1ccc(-c2cn3c(c2-c2ccccc2)CCC3)cc1,1100
4,Clc1ccc(-c2cn3c(c2-c2ccccc2)CCC3)s1,3900
5,CC1(C)Cc2c(-c3ccccc3)c(-c3occ4ccccc34)c(CC(=O)O)n2C1,20
6,CC1(C)Cc2c(-c3ccccc3)c(-c3ccco3)c(CC(=O)O)n2C1,130
7,CS(=O)(=O)c1ccc(-c2cn3c(c2-c2ccc(Cl)cc2)CCC3)cc1,8200
8,Cc1c(-c2ccc(Cl)cc2)c(-c2ccccc2)c2n1CC(C)(C)C2=O,950
9,O=C(O)/C=C/c1c(-c2ccc(SCc3ccccc3)cc2)c(-c2ccccc2)c2n1CCC2,5500
10,CC1(C)Cc2c(-c3ccccc3)c(-c3ccc(Cl)s3)c(CC(=O)O)n2C1,210
11,CS(=O)(=O)c1ccc(-c2cn3c(c2-c2ccc(F)cc2)CCC3)cc1,4300
12,CSc1ccc(-c2cn3c(c2-c2ccc(C)cc2)CCC3)cc1,30

# Test system: Rattus norvegicus
# Test: Antiinflammatory activity in rat assessed as inhibition of paw edema
# Type: functional
row,SMILES,inhibition (INH) [%]
1,N#Cc1c(NC(=O)CCN2CCOCC2)c(C(=O)Nc2ccccc2Cl)n2c1CCC2,5.7
2,Cc1ccccc1NC(=O)c1c(NC(=O)CN2CCOCC2)c(C#N)c2n1CCC2,3.9
3,N#Cc1c(NC(=O)CCCl)c(C(=O)Nc2ccccc2Cl)n2c1CCC2,18
4,N#Cc1c(NC(=O)CN2CCOCC2)c(C(=O)Nc2ccccc2Cl)n2c1CCC2,7.1
5,CC(=O)Nc1c(C#N)c2n(c1C(=O)Nc1ccccc1C)CCC2,23.2
6,Cc1ccccc1NC(=O)c1c(NC(=O)CCN2CCOCC2)c(C#N)c2n1CCC2,3.2
7,CC(=O)Nc1c(C#N)c2n(c1C(=O)Nc1ccccc1Cl)CCC2,23.9
8,Cc1ccccc1NC(=O)c1c(NC(=O)CCCl)c(C#N)c2n1CCC2,17.5
9,Cc1ccccc1NC(=O)c1c(NC(=O)CCl)c(C#N)c2n1CCC2,20.3
10,N#Cc1c(NC(=O)CCl)c(C(=O)Nc2ccccc2Cl)n2c1CCC2,22.2

# Organism: Mus musculus
# Test: Analgesic activity in mouse assessed as inhibition of acetic acid-induced writhing response relative to aspirin
# Type: functional
row,SMILES,fold change (FC)
1,O=C(c1ccc(F)cc1)c1ccc2n1CCCCC2C(=O)O (stereo unspecified),<1.3
2,CSc1ccc(C(=O)c2ccc3n2CCCC3C(=O)O)cc1 (stereo unspecified),3
3,O=C(c1ccccc1)c1ccc2n1CC(C(=O)O)C2 (stereo unspecified),-4
4,O=C(c1ccc(F)cc1)c1ccc2n1CCC2C(=O)O (stereo unspecified),183
5,N#Cc1ccc(C(=O)c2ccc3n2CCC3C(=O)O)cc1 (stereo unspecified),6
6,Cc1ccc(C(=O)c2ccc3n2CCCC3C(=O)O)cc1 (stereo unspecified),<0.5
7,O=C(c1cccc(Cl)c1)c1ccc2n1CCCC2C(=O)O (stereo unspecified),-9
8,CS(=O)(=O)c1ccc(C(=O)c2ccc3n2CCCC3C(=O)O)cc1 (stereo unspecified),<1
9,C[S+]([O-])c1ccc(C(=O)c2ccc3n2CCCC3C(=O)O)cc1 (stereo unspecified),-0.5
10,O=C(Cc1ccccc1)c1ccc2n1CCC2C(=O)O (stereo unspecified),14
11,O=C(c1ccc(F)cc1)c1ccc2n1CCCC2C(=O)O (stereo unspecified),<10
12,CSc1ccc(C(=O)c2ccc3n2CCCCC3C(=O)O)cc1 (stereo unspecified),-6
13,COc1ccc(C(=O)c2ccc3n2CCC3C(=O)O)cc1 (stereo unspecified) [ANIROLAC],117
14,O=C(c1ccccc1)c1ccc2n1CCCC2C(=O)O (stereo unspecified),9
15,O=C(c1ccc(Cl)cc1)c1ccc2n1CCCC2C(=O)O (stereo unspecified),<1
16,O=C(c1ccc2n1CCC2C(=O)O)C1CCC1 (stereo unspecified),30
17,CC(C)(C)C(=O)c1ccc2n1CCC2C(=O)O (stereo unspecified),-10
18,Cc1ccc(C(=O)c2ccc3n2CCC3C(=O)O)cc1 (stereo unspecified),165
19,COc1ccc(C(=O)c2ccc3n2CCCC3C(=O)O)cc1 (stereo unspecified),1.5
20,O=C(c1ccc(Cl)cc1)c1ccc2n1CC(C(=O)O)C2 (stereo unspecified),<10
21,O=C(c1ccc(Cl)cc1)c1c(Cl)cc2n1CCC2C(=O)O (stereo unspecified),167
22,O=C(c1ccccc1)c1ccc2n1CCCCC2C(=O)O (stereo unspecified),-3

# Target: T1, Prostaglandin G/H synthase 1 (Ovis aries) (UniProt P05979)
# T1 sequence (whole entry): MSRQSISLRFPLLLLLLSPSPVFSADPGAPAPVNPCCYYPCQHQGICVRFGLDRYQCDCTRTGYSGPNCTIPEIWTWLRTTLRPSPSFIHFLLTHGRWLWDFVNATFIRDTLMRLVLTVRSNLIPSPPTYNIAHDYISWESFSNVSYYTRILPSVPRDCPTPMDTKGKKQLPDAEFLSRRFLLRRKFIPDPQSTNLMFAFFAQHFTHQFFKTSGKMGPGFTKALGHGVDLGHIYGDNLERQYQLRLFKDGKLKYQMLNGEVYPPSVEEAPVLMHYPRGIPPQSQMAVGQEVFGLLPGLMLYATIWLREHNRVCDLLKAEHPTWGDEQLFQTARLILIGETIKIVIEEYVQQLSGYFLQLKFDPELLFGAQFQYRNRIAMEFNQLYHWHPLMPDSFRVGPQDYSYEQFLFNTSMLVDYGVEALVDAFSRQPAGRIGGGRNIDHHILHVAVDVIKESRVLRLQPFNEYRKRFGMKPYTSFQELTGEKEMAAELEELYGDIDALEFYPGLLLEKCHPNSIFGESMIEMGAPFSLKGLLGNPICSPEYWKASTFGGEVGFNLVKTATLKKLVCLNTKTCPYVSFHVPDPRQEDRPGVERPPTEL
# Test: Inhibition of COX1 in ovine thrombocyte at 10 uM relative to control
row,SMILES,IP [%]
1,O=C(O)/C=C/c1c(-c2ccc(O)cc2)c(-c2ccccc2)c2n1CCC2,0
2,O=C(O)/C=C/c1c(-c2ccc(S(=O)(=O)Cc3ccccc3)cc2)c(-c2ccccc2)c2n1CCC2,0
3,O=C(O)/C=C/c1c(-c2ccc(Cc3ccccc3)cc2)c(-c2ccccc2)c2n1CCC2,28
4,O=C(O)/C=C/c1c(-c2ccc(Nc3cccc(C(F)(F)F)c3)cc2)c(-c2ccccc2)c2n1CCC2,45
5,Nc1ccc(-c2c(-c3ccccc3)c3n(c2/C=C/C(=O)O)CCC3)cc1,31
6,O=C(O)/C=C/c1c(-c2ccc(-c3ccccc3)cc2)c(-c2ccccc2)c2n1CCC2,35
7,O=C(O)/C=C/c1c(-c2ccc(S(=O)(=O)c3ccccc3)cc2)c(-c2ccccc2)c2n1CCC2,0
8,O=C(O)/C=C/c1c(-c2ccccc2)c(-c2ccccc2)c2n1CCC2,17
9,O=C(O)/C=C/c1c(-c2ccc([S+]([O-])Cc3ccccc3)cc2)c(-c2ccccc2)c2n1CCC2 (stereo unspecified),18
10,O=C(O)/C=C/c1c(-c2ccc([S+]([O-])c3ccccc3)cc2)c(-c2ccccc2)c2n1CCC2 (stereo unspecified),12
11,O=C(O)/C=C/c1c(-c2ccc(Sc3ccccc3)cc2)c(-c2ccccc2)c2n1CCC2,40
12,O=C(O)/C=C/c1c(-c2ccc(Nc3ccc(Cl)cc3)cc2)c(-c2ccccc2)c2n1CCC2,12
13,O=C(O)/C=C/c1c(-c2ccc(Nc3ccccc3)cc2)c(-c2ccccc2)c2n1CCC2,45

# Target: T2, Polyunsaturated fatty acid 5-lipoxygenase (Homo sapiens) (UniProt P09917)
# T2 sequence (whole entry): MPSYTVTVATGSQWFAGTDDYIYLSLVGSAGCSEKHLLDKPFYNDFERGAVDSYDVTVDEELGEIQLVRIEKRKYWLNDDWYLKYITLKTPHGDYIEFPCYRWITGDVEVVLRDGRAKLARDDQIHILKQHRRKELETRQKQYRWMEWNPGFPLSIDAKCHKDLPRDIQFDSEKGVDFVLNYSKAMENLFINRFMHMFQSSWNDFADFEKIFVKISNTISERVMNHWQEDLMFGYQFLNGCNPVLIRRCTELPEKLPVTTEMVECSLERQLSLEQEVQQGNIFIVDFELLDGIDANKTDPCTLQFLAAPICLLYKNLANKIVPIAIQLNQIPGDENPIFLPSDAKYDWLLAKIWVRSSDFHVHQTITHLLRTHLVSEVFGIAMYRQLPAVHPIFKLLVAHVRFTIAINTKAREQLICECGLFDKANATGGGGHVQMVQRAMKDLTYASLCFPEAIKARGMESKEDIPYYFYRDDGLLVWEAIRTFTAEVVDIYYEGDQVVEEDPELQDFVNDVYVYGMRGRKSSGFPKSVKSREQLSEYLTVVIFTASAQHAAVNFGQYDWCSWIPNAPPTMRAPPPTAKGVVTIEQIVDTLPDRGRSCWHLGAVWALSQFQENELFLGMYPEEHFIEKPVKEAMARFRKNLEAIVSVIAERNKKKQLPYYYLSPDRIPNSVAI
# Test: Inhibition of 5-LOX in human PMNL at 10 uM relative to control
# Type: cell-based
row,SMILES,IP [%]
1,CSc1ccc(-c2cn3c(c2-c2ccccc2)CCC3)cc1,0
2,Clc1ccc(-c2cn3c(c2-c2ccccc2)CCC3)s1,0
3,CS(=O)(=O)c1ccc(-c2cn3c(c2-c2ccc(Cl)cc2)CCC3)cc1,0
4,CS(=O)(=O)c1ccc(-c2cn3c(c2-c2ccc(F)cc2)CCC3)cc1,0
5,CSc1ccc(-c2cn3c(c2-c2ccc(C)cc2)CCC3)cc1,0

# Target: T3, Prostaglandin G/H synthase 2 (Homo sapiens, UniProt P35354)
# T3 sequence (P35354 whole entry): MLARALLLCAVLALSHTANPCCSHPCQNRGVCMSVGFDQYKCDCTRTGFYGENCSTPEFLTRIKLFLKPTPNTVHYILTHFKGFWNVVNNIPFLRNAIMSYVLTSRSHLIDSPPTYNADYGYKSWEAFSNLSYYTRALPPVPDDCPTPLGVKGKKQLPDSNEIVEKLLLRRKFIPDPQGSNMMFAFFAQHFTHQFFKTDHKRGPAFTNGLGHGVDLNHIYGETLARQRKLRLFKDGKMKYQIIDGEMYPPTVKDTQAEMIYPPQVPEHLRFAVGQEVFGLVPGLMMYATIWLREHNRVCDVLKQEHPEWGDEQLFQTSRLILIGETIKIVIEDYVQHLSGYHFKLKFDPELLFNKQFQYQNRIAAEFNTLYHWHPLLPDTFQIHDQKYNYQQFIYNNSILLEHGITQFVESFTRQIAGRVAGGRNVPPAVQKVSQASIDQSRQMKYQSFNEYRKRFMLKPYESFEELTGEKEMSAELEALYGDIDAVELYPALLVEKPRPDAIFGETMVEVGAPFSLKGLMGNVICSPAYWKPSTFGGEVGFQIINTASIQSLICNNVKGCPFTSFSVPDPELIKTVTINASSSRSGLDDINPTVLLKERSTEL
# Test: Inhibition of COX2 (unknown origin)
row,SMILES,IC50 [nM]
1,COC1c2c(-c3ccccc3)c(-c3ccc(Cl)cc3)c(C)n2CC1(C)C (stereo unspecified),7500
2,Cc1ccc(-c2c(-c3ccc(S(C)(=O)=O)cc3)cn3c2CCC3)cc1,5
3,CSc1ccc(-c2cn3c(c2-c2ccccc2)CCC3)cc1,1000
4,CC1(C)Cn2c(CC(=O)O)c(-c3ccc(Cl)cc3)c(-c3ccccc3)c2C1=O,2100
5,CS(=O)(=O)c1ccc(-c2cn3c(c2-c2ccc(Cl)cc2)CCC3)cc1,8
6,CS(=O)(=O)c1ccc(-c2cn3c(c2-c2ccc(F)cc2)CCC3)cc1,160
7,CSc1ccc(-c2cn3c(c2-c2ccc(C)cc2)CCC3)cc1,900
